The values below come from US11911610B2, “Methods for restoring sensitivity to TTFields in TTFields-resistant cancer cells with PTGER3 inhibitors” (Novocure GmbH, priority 2019, dated 2024).

For test [1], the system named is U87R resistant cells. Briefly: Live cell count of TTFields-resistant GBM cells treated with drug with or without TTFields for 3 days. In kind it is cell-based, human. To be noted: for sensitivity to TTFields: inhibitor + TTFields 200 kHz compared with TTFields alone, FIG. 14. As to the method: (§1) For the experiments summarized in FIG. 13, resistant human GBM cells were treated with either vehicle control or aspirin and with or without TTFields for 3 days. Drug was replenished daily. The numbers of live cells were quantified using a cell counter at the end point.
PTGER3 inhibitors can restore sensitivity to TTFields.

Test [2] relates to human GBM cell lines (LN827). Briefly: Resistant cell line generation experiment with PTGER3 inhibitor (FIG. 16). It is filed as cell-based. The note with it: L798,106 + TTFields, 5 cycles of 7 days. The text has this:
For the experiments summarized in FIG. 2, TTFields-resistant human GBM cell lines were generated by seeding LN827 cells at a density of 10,000/ml and treated with TTFields for in repeated 1-week cycles at a frequency of 200 kHz. For each cycle, cells were counted on day 2, day 4 and day 7. At the end of each cycle, the cells were re-seeded at the same density as on day 0, harvested and processed for RNAseq and cryopreservation for future analysis. Resistant cells emerged after at least four weeks of TTFields treatment.
The resistant cell line generation experiment using the original human GBM cell lines from FIG. 2 was repeated with two more groups that included a PTGER3 inhibitor (L798,106 and L798,106+TTFields) (FIG. 16). […] Cells were seeded and counted at the same cell density and time points. Each cycle lasts for 7 days within total of 5 cycles.

Test [3] concerns LN428R resistant cells. Description: Live cell count of TTFields-resistant GBM cells treated with drug with or without TTFields for 3 days. It is filed as cell-based, human. To be noted: aspirin + TTFields, drug replenished daily, reduced from 85 k/dish, TTFields alone 70 k/dish. As to the method: as §1
Test [4] has as its system LN827R cells. The description is as above. It is filed as cell-based, human. The note with it: aspirin + TTFields, drug replenished daily, reduced from around 125 k/dish, TTFields alone increased count slightly. How it is done: as §1
The test system of test [5] is TTFields-resistant GBM cells (U87R, L428R, and LN827R). Description: Reduction of resistance to TTFields in TTFields-resistant GBM cells (FIG. 13). It is filed as cell-based, human. To be noted: Aspirin+TTFields compared with Vehicle+TTFields, 3 days. As to the method:
as §1

Consider `Cc1cn(Cc2ccc(Cl)cc2Cl)c2c(/C=C/C(=O)NS(=O)(=O)c3cc(Cl)c(Cl)s3)cc(F)cc12` [DG041], for which the live cell count entry in test [1] (DG041 50 nM + TTFields 200 kHz, reduced from around 160 k/dish, TTFields alone 100 k/dish) is on record as “around 40 k/dish”. Further, the “sensitivity to TTFields” value in test [1] was “restores sensitivity to TTFields”.
Turning to `COc1ccc(Br)cc1S(=O)(=O)NC(=O)/C=C/c1ccccc1Cc1ccc2ccccc2c1` [L798,106], the live cell count in test [1] (L798,106 0.5 μM + TTFields 200 kHz, reduced from around 200 k/dish, TTFields alone 125 k/dish) came out at 25 k/dish. The “sensitivity to TTFields” value in test [1] is reported as “restores sensitivity to TTFields”. In test [2], the “development of resistance to TTFields” value is listed as “prevented the development of resistance to TTFields”.
In the case of `CC(=O)Oc1ccccc1C(=O)O` [aspirin], the live cell count is listed as 100 k/dish in test [1] (aspirin + TTFields, drug replenished daily, reduced from 150 k/dish, TTFields alone 125 k/dish); 40 k/dish in test [3]; 90 k/dish in test [4]. Also, the “resistance to TTFields” value in test [5] is listed as “significantly reduces resistance to TTFields”.
